Data as given in ChEMBL document CHEMBL4052714, “Synthesis and antibacterial activity of novel 4″-O-(1-aralkyl-1,2,3-triazol-4-methyl-carbamoyl) azithromycin analogs” (2017).
In brackets after ≈: the same amount, converted by molar mass.

How the values were obtained:
Assay type in all cases: functional
Staphylococcus aureus [1] = experiment: Antibacterial activity against erythromycin-susceptible Staphylococcus aureus ATCC 25923
Streptococcus pneumoniae [2] = experiment: Antibacterial activity against erythromycin-susceptible Streptococcus pneumoniae ATCC 49619
Staphylococcus aureus [3] = experiment: Antibacterial activity against methicillin-susceptible Staphylococcus aureus ATCC 29213
Streptococcus pyogenes [4] = experiment: Antibacterial activity against erythromycin-susceptible Streptococcus pyogenes isolate S2
Streptococcus pyogenes [5] = experiment: Antibacterial activity against erythromycin-resistant Streptococcus pyogenes isolate R2
Streptococcus pneumoniae [6] = experiment: Antibacterial activity against erythromycin-resistant Streptococcus pneumoniae B1 expressing ermB gene
Streptococcus pneumoniae [7] = experiment: Antibacterial activity against erythromycin-resistant Streptococcus pneumoniae A22072 expressing mefA gene
Streptococcus pneumoniae [8] = experiment: Antibacterial activity against erythromycin-resistant Streptococcus pneumoniae AB11 expressing ermB/mefA gene
Escherichia coli = experiment: Antibacterial activity against Escherichia coli ATCC 25922
Pseudomonas aeruginosa = experiment: Antibacterial activity against Pseudomonas aeruginosa ATCC 27853
Streptococcus pneumoniae [9] = experiment: Potency index, ratio of azithromycin MIC to compound MIC for erythromycin-resistant Streptococcus pneumoniae B1 expressing ermB gene
Streptococcus pneumoniae [10] = experiment: Potency index, ratio of azithromycin MIC to compound MIC for erythromycin-resistant Streptococcus pneumoniae A22072 expressing mefA gene
Streptococcus pneumoniae [11] = experiment: Potency index, ratio of azithromycin MIC to compound MIC for erythromycin-resistant Streptococcus pneumoniae AB11 expressing ermB/mefA gene
Streptococcus pneumoniae [12] = experiment: Potency index, ratio of clarithromycin MIC to compound MIC for erythromycin-resistant Streptococcus pneumoniae B1 expressing ermB gene
Streptococcus pneumoniae [13] = experiment: Potency index, ratio of clarithromycin MIC to compound MIC for erythromycin-resistant Streptococcus pneumoniae A22072 expressing mefA gene
Streptococcus pneumoniae [14] = experiment: Potency index, ratio of clarithromycin MIC to compound MIC for erythromycin-resistant Streptococcus pneumoniae AB11 expressing ermB/mefA gene

| Structure (SMILES) | MIC (Staphylococcus aureus [1]) | MIC (Streptococcus pneumoniae [2]) | MIC (Staphylococcus aureus [3]) | MIC (Streptococcus pyogenes [4]) | MIC (Streptococcus pyogenes [5]) | MIC (Streptococcus pneumoniae [6]) | MIC (Streptococcus pneumoniae [7]) | MIC (Streptococcus pneumoniae [8]) | MIC (Escherichia coli) | MIC (Pseudomonas aeruginosa) | Ratio (Streptococcus pneumoniae [9]) | Ratio (Streptococcus pneumoniae [10]) | Ratio (Streptococcus pneumoniae [11]) | Ratio (Streptococcus pneumoniae [12]) | Ratio (Streptococcus pneumoniae [13]) | Ratio (Streptococcus pneumoniae [14]) |
| --- | --- | --- | --- | --- | --- | --- | --- | --- | --- | --- | --- | --- | --- | --- | --- | --- |
| CC[C@H]1OC(=O)[C@H](C)[C@@H](O[C@H]2C[C@@](C)(OC)[C@@H](OC(=O)NCc3cn(Cc4c(Cl)cccc4Cl)nn3)[C@H](C)O2)[C@H](C)[C@@H](O[C@@H]2O[C@H](C)C[C@H](N(C)C)[C@H]2O)[C@](C)(O)C[C@@H](C)CN(C)[C@H](C)[C@@H](OC(=O)NCc2ccc(OC)cc2)[C@]1(C)O | 0.25 µg/mL (≈ 0.209 µM) | 0.06 µg/mL (≈ 0.0502 µM) | 16 µg/mL (≈ 13.4 µM) | < 0.002 µg/mL | 1 µg/mL (≈ 0.837 µM) | 0.125 µg/mL (≈ 0.105 µM) | 0.03 µg/mL (≈ 0.0251 µM) | 0.25 µg/mL (≈ 0.209 µM) | 16 µg/mL (≈ 13.4 µM) | 16 µg/mL (≈ 13.4 µM) | 1024 - 2133 | 32 - 133 | 1024 - 2048 | 1024 - 2133 | 32 - 133 | 1024 - 2048 |
| CC[C@H]1OC(=O)[C@H](C)[C@@H](O[C@H]2C[C@@](C)(OC)[C@@H](OC(=O)NCc3cn(Cc4c(Cl)cccc4Cl)nn3)[C@H](C)O2)[C@H](C)[C@@H](O[C@@H]2O[C@H](C)C[C@H](N(C)C)[C@H]2O)[C@](C)(O)C[C@@H](C)CN(C)[C@H](C)[C@H]2OC(=O)O[C@@]21C | 4 µg/mL (≈ 3.78 µM) | 1 µg/mL (≈ 0.945 µM) | 32 µg/mL (≈ 30.2 µM) | 0.125 µg/mL (≈ 0.118 µM) | 16 µg/mL (≈ 15.1 µM) | 1 µg/mL (≈ 0.945 µM) | 0.25 µg/mL (≈ 0.236 µM) | 0.25 µg/mL (≈ 0.236 µM) | 128 µg/mL (≈ 121 µM) | 64 µg/mL (≈ 60.5 µM) | 128 | 16 | 1024 |  |  |  |
| CC[C@H]1OC(=O)[C@H](C)[C@@H](O[C@H]2C[C@@](C)(OC)[C@@H](OC(=O)NCc3cn(Cc4ccccc4Cl)nn3)[C@H](C)O2)[C@H](C)[C@@H](O[C@@H]2O[C@H](C)C[C@H](N(C)C)[C@H]2O)[C@](C)(O)C[C@@H](C)CN(C)[C@H](C)[C@@H](OC(=O)NCc2ccc(OC)cc2)[C@]1(C)O | 0.03 µg/mL (≈ 0.0258 µM) | 0.125 µg/mL (≈ 0.108 µM) | 16 µg/mL (≈ 13.8 µM) | < 0.002 µg/mL | 8 µg/mL (≈ 6.89 µM) | 0.06 µg/mL (≈ 0.0517 µM) | 0.03 µg/mL (≈ 0.0258 µM) | 0.125 µg/mL (≈ 0.108 µM) | 32 µg/mL (≈ 27.6 µM) | 8 µg/mL (≈ 6.89 µM) | 1024 - 2133 | 32 - 133 | 1024 - 2048 | 1024 - 2133 | 32 - 133 | 1024 - 2048 |
| CC[C@H]1OC(=O)[C@H](C)[C@@H](O[C@H]2C[C@@](C)(OC)[C@@H](OC(=O)NCc3cn(Cc4ccc(Cl)cc4)nn3)[C@H](C)O2)[C@H](C)[C@@H](O[C@@H]2O[C@H](C)C[C@H](N(C)C)[C@H]2O)[C@](C)(O)C[C@@H](C)CN(C)[C@H](C)[C@@H](OC(=O)NCc2ccccc2)[C@]1(C)O | 0.25 µg/mL (≈ 0.221 µM) | 0.25 µg/mL (≈ 0.221 µM) | 16 µg/mL (≈ 14.1 µM) | < 0.002 µg/mL | 32 µg/mL (≈ 28.3 µM) | 0.25 µg/mL (≈ 0.221 µM) | 0.125 µg/mL (≈ 0.111 µM) | 0.25 µg/mL (≈ 0.221 µM) | 32 µg/mL (≈ 28.3 µM) | 32 µg/mL (≈ 28.3 µM) |  |  |  |  |  |  |
| CC[C@H]1OC(=O)[C@H](C)[C@@H](O[C@H]2C[C@@](C)(OC)[C@@H](OC(=O)NCc3cn(Cc4ccc(Cl)cc4)nn3)[C@H](C)O2)[C@H](C)[C@@H](O[C@@H]2O[C@H](C)C[C@H](N(C)C)[C@H]2O)[C@](C)(O)C[C@@H](C)CN(C)[C@H](C)[C@H]2OC(=O)O[C@@]21C | 4 µg/mL (≈ 3.91 µM) | 1 µg/mL (≈ 0.977 µM) | 32 µg/mL (≈ 31.3 µM) | 0.125 µg/mL (≈ 0.122 µM) | 64 µg/mL (≈ 62.5 µM) | 8 µg/mL (≈ 7.82 µM) | 1 µg/mL (≈ 0.977 µM) | 4 µg/mL (≈ 3.91 µM) | 64 µg/mL (≈ 62.5 µM) | 64 µg/mL (≈ 62.5 µM) |  |  |  |  |  |  |
| CC[C@H]1OC(=O)[C@H](C)[C@@H](O[C@H]2C[C@@](C)(OC)[C@@H](OC(=O)NCc3cn(Cc4ccc(Cl)cc4Cl)nn3)[C@H](C)O2)[C@H](C)[C@@H](O[C@@H]2O[C@H](C)C[C@H](N(C)C)[C@H]2O)[C@](C)(O)C[C@@H](C)CN(C)[C@H](C)[C@@H](OC(=O)NCc2ccc(OC)cc2)[C@]1(C)O | 0.25 µg/mL (≈ 0.209 µM) | 0.06 µg/mL (≈ 0.0502 µM) | 16 µg/mL (≈ 13.4 µM) | < 0.002 µg/mL | 8 µg/mL (≈ 6.69 µM) | 0.125 µg/mL (≈ 0.105 µM) | 0.125 µg/mL (≈ 0.105 µM) | 0.25 µg/mL (≈ 0.209 µM) | 16 µg/mL (≈ 13.4 µM) | 16 µg/mL (≈ 13.4 µM) | 1024 - 2133 | 32 - 133 | 1024 - 2048 | 1024 - 2133 | 32 - 133 | 1024 - 2048 |
| CC[C@H]1OC(=O)[C@H](C)[C@@H](O[C@H]2C[C@@](C)(OC)[C@@H](O)[C@H](C)O2)[C@H](C)[C@@H](O[C@@H]2O[C@H](C)C[C@H](N(C)C)[C@H]2O)[C@](C)(OC)C[C@@H](C)C(=O)[C@H](C)[C@@H](O)[C@]1(C)O [CLARITHROMYCIN] | 0.12 µg/mL (≈ 0.16 µM) | 0.125 µg/mL (≈ 0.167 µM) | 0.25 µg/mL (≈ 0.334 µM) | 0.03 µg/mL (≈ 0.0401 µM) | 128 µg/mL (≈ 171 µM) | 128 µg/mL (≈ 171 µM) | 4 µg/mL (≈ 5.35 µM) | 128 µg/mL (≈ 171 µM) | 64 µg/mL (≈ 85.6 µM) | 32 µg/mL (≈ 42.8 µM) |  |  |  |  |  |  |
| CC[C@H]1OC(=O)[C@H](C)[C@@H](O[C@H]2C[C@@](C)(OC)[C@@H](O)[C@H](C)O2)[C@H](C)[C@@H](O[C@@H]2O[C@H](C)C[C@H](N(C)C)[C@H]2O)[C@](C)(O)C[C@@H](C)CN(C)[C@H](C)[C@@H](O)[C@]1(C)O [AZITHROMYCIN] | 0.25 µg/mL (≈ 0.334 µM) | 0.125 µg/mL (≈ 0.167 µM) | 1 µg/mL (≈ 1.34 µM) | 0.03 µg/mL (≈ 0.0401 µM) | 128 µg/mL (≈ 171 µM) | 128 µg/mL (≈ 171 µM) | 4 µg/mL (≈ 5.34 µM) | 256 µg/mL (≈ 342 µM) | 16 µg/mL (≈ 21.4 µM) | 8 µg/mL (≈ 10.7 µM) |  |  |  |  |  |  |
| CC[C@H]1OC(=O)[C@H](C)[C@@H](O[C@H]2C[C@@](C)(OC)[C@@H](OC(=O)NCc3cn(Cc4ccccc4C)nn3)[C@H](C)O2)[C@H](C)[C@@H](O[C@@H]2O[C@H](C)C[C@H](N(C)C)[C@H]2O)[C@](C)(O)C[C@@H](C)CN(C)[C@H](C)[C@@H](O)[C@]1(C)O | 1 µg/mL (≈ 1.02 µM) | 0.25 µg/mL (≈ 0.256 µM) | 16 µg/mL (≈ 16.4 µM) | 0.03 µg/mL (≈ 0.0307 µM) | 64 µg/mL (≈ 65.5 µM) | 0.5 µg/mL (≈ 0.512 µM) | 0.5 µg/mL (≈ 0.512 µM) | 0.5 µg/mL (≈ 0.512 µM) | 16 µg/mL (≈ 16.4 µM) | 64 µg/mL (≈ 65.5 µM) |  |  |  |  |  |  |
| CC[C@H]1OC(=O)[C@H](C)[C@@H](O[C@H]2C[C@@](C)(OC)[C@@H](OC(=O)NCc3cn(Cc4ccc(Cl)cc4Cl)nn3)[C@H](C)O2)[C@H](C)[C@@H](O[C@@H]2O[C@H](C)C[C@H](N(C)C)[C@H]2O)[C@](C)(O)C[C@@H](C)CN(C)[C@H](C)[C@H]2OC(=O)O[C@@]21C | 4 µg/mL (≈ 3.78 µM) | 1 µg/mL (≈ 0.945 µM) | 32 µg/mL (≈ 30.2 µM) | 0.125 µg/mL (≈ 0.118 µM) | 32 µg/mL (≈ 30.2 µM) | 4 µg/mL (≈ 3.78 µM) | 1 µg/mL (≈ 0.945 µM) | 2 µg/mL (≈ 1.89 µM) | 128 µg/mL (≈ 121 µM) | 64 µg/mL (≈ 60.5 µM) |  |  |  |  |  |  |
| CC[C@H]1OC(=O)[C@H](C)[C@@H](O[C@H]2C[C@@](C)(OC)[C@@H](OC(=O)NCc3cn(Cc4c(Cl)cccc4Cl)nn3)[C@H](C)O2)[C@H](C)[C@@H](O[C@@H]2O[C@H](C)C[C@H](N(C)C)[C@H]2O)[C@](C)(O)C[C@@H](C)CN(C)[C@H](C)[C@@H](O)[C@]1(C)O | 1 µg/mL (≈ 0.969 µM) | 0.5 µg/mL (≈ 0.484 µM) | 16 µg/mL (≈ 15.5 µM) | 0.03 µg/mL (≈ 0.0291 µM) | 32 µg/mL (≈ 31 µM) | 0.5 µg/mL (≈ 0.484 µM) | 0.5 µg/mL (≈ 0.484 µM) | 0.5 µg/mL (≈ 0.484 µM) | 32 µg/mL (≈ 31 µM) | 32 µg/mL (≈ 31 µM) |  |  |  |  |  |  |
